Read-outs that look alike come from different tables or passages of the source.
What was measured:
JAK3 = target: T1, JAK3 (Homo sapiens, UniProt P52333); experiment: NanoBRET in-cell target engagement, JAK3; assay type: binding; settings: HEK296T cells, 1 h incubation, average of duplicates
T1 construct: host or cells: HEK296T (so in the source)
Procedure: (§1) In-cell target engagement was performed at Reaction Biology Corporation, using NanoBRET technology. Very briefly, HEK296T cells were transfected and treated in duplicate with JS25 for 1 h of incubation. The compound was diluted 10 times with 3-fold dilution, starting at 1 μM. Curve fits were performed only when the % NanoBret signal at the highest concentration of compounds was less than 55%. The IC50 values were determined using GraphPad Prism 8 ([…]).

Mo1043 cells (CLL) = experiment: Cell viability assay (CellTiter-Glo), Mo1043; assay type: cell-based; settings: 72 h, n = 3
HBEC-5i cell model = experiment: In vitro blood–brain barrier permeability (translocation), HBEC-5i cell model; assay type: in vitro ADME, human; settings: Translocation 24 h, compound 15 μM
Procedure: (§2) Human cerebral microvascular endothelial cells (HBEC-5i) were cultured as a monolayer on attachment factor protein solution (AF)-coated T-flasks (Gibco), using DMEM/F12 medium (Gibco), supplemented with 10% FBS, 1% penicillin/streptomycin, and 40.0 μg/mL endothelial cell growth supplement (ECGS, Sigma), according to the manufacturer’s instructions. The capacity of the compounds to cross the brain–blood barrier (BBB) was evaluated using an in vitro HBEC-5i cell model, as previously described.[29] Samples from the apical and basolateral sides were collected, and fluorescence intensity was measured using a Varioskan LUX multimode microplate reader. The retention was considered the difference between the initial fluorescence of compounds (100%) and the aggregated apical and basolateral fluorescence.

BTK = BTK (Homo sapiens, UniProt Q06187); experiment: BTK inhibition kinetics (ADP-Glo kinase assay); assay type: biochemical; set-up: purchased Promega Corporation V2941
BTK, sequence (Q06187 whole entry): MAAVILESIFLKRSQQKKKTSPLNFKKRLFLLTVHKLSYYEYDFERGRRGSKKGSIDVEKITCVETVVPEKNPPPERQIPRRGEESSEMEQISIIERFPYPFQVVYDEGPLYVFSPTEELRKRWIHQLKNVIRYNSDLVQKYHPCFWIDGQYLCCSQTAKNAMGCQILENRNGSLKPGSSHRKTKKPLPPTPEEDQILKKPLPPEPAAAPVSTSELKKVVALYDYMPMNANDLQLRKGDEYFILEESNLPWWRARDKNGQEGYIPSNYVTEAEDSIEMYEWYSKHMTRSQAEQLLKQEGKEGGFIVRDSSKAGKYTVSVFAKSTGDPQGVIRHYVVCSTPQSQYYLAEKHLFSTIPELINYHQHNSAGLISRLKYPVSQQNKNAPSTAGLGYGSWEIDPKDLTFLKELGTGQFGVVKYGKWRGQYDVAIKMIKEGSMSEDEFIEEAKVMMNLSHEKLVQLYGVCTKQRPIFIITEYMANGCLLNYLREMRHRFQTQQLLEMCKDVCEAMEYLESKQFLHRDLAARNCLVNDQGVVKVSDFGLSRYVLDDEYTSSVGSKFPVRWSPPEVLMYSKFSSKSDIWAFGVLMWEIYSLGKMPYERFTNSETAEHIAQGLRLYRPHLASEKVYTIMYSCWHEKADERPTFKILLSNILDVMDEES

HBEC-5i cells = experiment: Cell viability assay (CellTiter-Glo), HBEC-5i; assay type: cell-based; settings: Homo sapiens, 72 h, n = 3
Procedure: (§3) Cells were inoculated at a density of 5000 cells/well. Serially diluted compounds (starting at 50 μM) were added 24 h later. The assay was performed in triplicates. After 72 h of incubation, cellular viability was assessed by CellTiter-Glo (Promega) according to the manufacturer’s instructions. The values were normalized with the vehicle (DMSO), and the IC50 was calculated using GraphPad Prism 8.
as §2

primary DLBCL samples = experiment: Ex vivo model of diffuse large B-cell lymphoma (Pharmacoscopy, drug response score); assay type: cell-based, human; settings: 72 h, 4-point dose–response from 10 μM
BMX [1] = target: T2, BMX (Homo sapiens, UniProt P51813); experiment: NanoBRET in-cell target engagement, BMX; assay type: binding
T2 construct: host or cells: HEK296T (so in the source)
T2 sequence (P51813 1-675): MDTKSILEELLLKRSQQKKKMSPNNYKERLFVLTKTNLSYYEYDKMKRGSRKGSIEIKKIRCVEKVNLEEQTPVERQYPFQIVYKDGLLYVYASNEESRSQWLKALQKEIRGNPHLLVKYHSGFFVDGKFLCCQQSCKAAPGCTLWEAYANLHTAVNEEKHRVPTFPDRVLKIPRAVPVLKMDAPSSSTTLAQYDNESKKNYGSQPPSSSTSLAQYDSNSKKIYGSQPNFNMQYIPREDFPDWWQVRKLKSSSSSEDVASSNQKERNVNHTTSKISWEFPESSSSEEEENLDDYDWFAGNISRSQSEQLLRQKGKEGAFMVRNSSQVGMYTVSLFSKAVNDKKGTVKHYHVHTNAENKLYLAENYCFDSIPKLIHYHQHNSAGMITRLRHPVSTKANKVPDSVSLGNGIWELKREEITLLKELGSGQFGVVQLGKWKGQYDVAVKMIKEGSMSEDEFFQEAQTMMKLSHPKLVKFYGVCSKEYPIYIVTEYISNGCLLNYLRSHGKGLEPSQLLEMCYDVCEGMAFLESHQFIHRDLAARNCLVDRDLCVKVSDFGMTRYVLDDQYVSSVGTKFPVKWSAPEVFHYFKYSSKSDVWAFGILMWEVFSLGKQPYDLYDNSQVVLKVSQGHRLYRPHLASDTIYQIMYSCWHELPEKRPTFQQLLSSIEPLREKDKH
Procedure: as §1

TEC = target: T3, TEC (Homo sapiens, UniProt P42680); experiment: NanoBRET in-cell target engagement, TEC; assay type: binding
T3 construct: host or cells: HEK296T (so in the source)
T3 sequence (P42680 1-631): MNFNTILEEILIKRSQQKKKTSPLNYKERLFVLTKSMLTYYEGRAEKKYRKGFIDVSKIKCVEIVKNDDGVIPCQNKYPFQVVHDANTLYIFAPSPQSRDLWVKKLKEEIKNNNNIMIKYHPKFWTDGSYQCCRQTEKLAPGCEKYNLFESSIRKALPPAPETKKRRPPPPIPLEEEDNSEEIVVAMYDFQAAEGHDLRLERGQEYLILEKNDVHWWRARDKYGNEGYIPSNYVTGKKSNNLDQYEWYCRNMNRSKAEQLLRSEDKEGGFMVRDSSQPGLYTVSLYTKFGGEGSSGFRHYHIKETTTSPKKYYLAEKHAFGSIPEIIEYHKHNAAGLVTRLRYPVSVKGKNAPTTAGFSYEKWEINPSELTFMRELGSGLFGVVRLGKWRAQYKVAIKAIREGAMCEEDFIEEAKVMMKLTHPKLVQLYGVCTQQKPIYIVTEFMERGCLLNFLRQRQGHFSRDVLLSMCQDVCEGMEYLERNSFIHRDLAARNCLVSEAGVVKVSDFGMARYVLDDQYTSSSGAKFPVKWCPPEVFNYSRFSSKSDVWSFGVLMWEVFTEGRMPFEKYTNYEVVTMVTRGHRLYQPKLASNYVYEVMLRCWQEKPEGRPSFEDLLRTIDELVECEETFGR
Procedure: as §1

BMX [2] = target: T2, BMX; settings: first value of 3.5/49 in Table S3; ref SI 20; read-out: IC50, BMX, earlier value of JS25; cited from earlier work
MOLM-13 cells (AML) = experiment: Cell viability assay (CellTiter-Glo), MOLM-13; assay type: cell-based; settings: Homo sapiens, 72 h, n = 3
Procedure: All cell lines were purchased from ATCC, except for DoHH-2 cells that were obtained from DSMZ. Cells were cultivated in complete DMEM supplemented with 10% (vol/vol) FBS (Gibco) and 1% of penicillin/streptomycin (Gibco). The cells were grown in a humidified atmosphere of 5% CO2 at 37°C, with the medium changed every other day.
as §3

[3] = BTK preincubated with inhibitor 2–60 min, ATP 50 μM
[4] = HEK296T cells, 1 h incubation, average of duplicates

T1 sequence (P52333 whole entry): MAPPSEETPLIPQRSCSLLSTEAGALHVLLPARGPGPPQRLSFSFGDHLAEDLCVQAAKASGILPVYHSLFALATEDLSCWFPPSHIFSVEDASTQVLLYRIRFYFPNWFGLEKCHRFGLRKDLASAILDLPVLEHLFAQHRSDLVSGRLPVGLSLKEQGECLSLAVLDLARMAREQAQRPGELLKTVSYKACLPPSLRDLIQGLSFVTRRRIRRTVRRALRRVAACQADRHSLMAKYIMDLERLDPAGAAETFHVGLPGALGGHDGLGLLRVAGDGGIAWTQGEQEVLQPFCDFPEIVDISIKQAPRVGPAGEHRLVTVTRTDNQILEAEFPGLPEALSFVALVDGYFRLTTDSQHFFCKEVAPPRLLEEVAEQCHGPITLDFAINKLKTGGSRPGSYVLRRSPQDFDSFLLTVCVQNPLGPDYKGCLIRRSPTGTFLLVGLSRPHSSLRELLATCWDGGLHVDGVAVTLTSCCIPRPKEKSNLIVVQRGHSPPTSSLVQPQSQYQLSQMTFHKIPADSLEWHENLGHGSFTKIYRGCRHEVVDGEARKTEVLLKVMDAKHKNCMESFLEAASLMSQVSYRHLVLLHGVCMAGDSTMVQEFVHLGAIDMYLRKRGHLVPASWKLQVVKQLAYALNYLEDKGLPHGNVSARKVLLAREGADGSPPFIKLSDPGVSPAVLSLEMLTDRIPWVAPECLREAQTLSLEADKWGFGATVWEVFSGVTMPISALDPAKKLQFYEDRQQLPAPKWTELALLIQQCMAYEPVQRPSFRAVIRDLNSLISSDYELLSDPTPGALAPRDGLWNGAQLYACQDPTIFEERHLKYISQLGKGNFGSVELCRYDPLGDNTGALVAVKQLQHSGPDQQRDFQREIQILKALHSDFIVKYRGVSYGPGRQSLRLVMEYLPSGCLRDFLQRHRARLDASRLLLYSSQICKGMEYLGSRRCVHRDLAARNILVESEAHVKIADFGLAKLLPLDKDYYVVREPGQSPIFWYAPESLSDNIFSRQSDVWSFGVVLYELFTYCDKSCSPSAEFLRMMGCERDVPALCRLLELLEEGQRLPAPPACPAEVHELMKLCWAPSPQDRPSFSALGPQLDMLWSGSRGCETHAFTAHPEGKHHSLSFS

IC50 (JAK3): > 3 µM | % Fluorescence, Basolateral side (permeability to the BBB) (HBEC-5i cell model): 28.5% | increase in the rate of protein inactivation compared to ibrutinib, acalabrutinib and BMX-IN-1 (BTK): 8–200 fold | increased rate of inactivation (kinact/KI) relative to BMX-IN-1 (BTK): ~18 fold | increased rate of inactivation (kinact/KI) relative to acalabrutinib (BTK): ~200 fold | increased rate of inactivation (kinact/KI) relative to ibrutinib (BTK): approximately 8 fold | kinact of JS25, fold faster compared with ibrutinib, acalabrutinib and BMX-IN-1 (BTK): 10 fold | Ki (BTK; [3]): 0.00077 ± 6e-05 µM | kinact (BTK; [3]): 0.00668 s⁻¹ | kinact/KI (BTK; [3]): 8.72e+06 ± 1.02e+06 M⁻¹ s⁻¹ | selectivity toward BTK relative to BMX (BMX [1]): ~2 fold | IC50 (BMX [1]; [4]): 0.049 µM | selectivity (kinase/BTK), BMX (BMX [1]; IC50 kinase/IC50 BTK): 1.7 | selectivity for BTK relative to TEC (TEC): ~8 fold | IC50 (TEC; [4]): 0.22 µM | selectivity (kinase/BTK), TEC (TEC; IC50 kinase/IC50 BTK): 7.7 | IC50 (MOLM-13 cells (AML)): ~0.51 µM
SMILES: C=CC(=O)Nc1cc(C)cc(-n2c(=O)ccc3cnc4ccc(-c5ccc(NS(C)(=O)=O)cc5)cc4c32)c1 [JS25]
IC50 (Mo1043 cells (CLL)): 3.4 ± 0.01 µM | IC50 (HBEC-5i cells): 23.4 ± 0.98 µM | patients with off-target or nonspecific killing (DRS < 0) (primary DLBCL samples; 11 patients): ~36% | patients with “on-target” effect (DRS > 0) (primary DLBCL samples; JS25 11 patients, ibrutinib 10 patients): 64% | IC50 (BMX [2]): 0.0035 µM
